From PubChem BioAssay AID1918993 (Molecular Pharmacology Branch, DTP, NCI, 2023)

System: 233499-124-R-J3-PDC complex spheroid growth
Assay: Anticancer human tumor 233499-124-R-J3-PDC patient-derived colon adenocarcinoma cell line growth inhibition [AhR]
Conditions: for IC50: curve of first compound; for viability, T/C: stronger effect = lower value
From the text: Multicellular complex tumor spheroid response to aryl hydrocarbon receptor antagonists in combination with a variety of drugs and investigational agents in selected tumor cell lines
The current study was undertaken to assess response to aryl hydrocarbon receptor antagonists in combination with standard-of-care drugs and investigational agents in solid tumor complex spheroid models. Complex spheroids include a stromal component modeled by human endothelial cells (HUVEC) and fibroblasts modeled by human mesenchymal stem cells (MSCs). The concentration ranges selected for each drug and investigational agent were based upon clinically achievable concentrations if the clinical Cmax of the agent was known.
Compounds. The drugs and investigational agents: BAY 2416964 (NSC825713), GNF351 (NSC835774), CH-223191 (NSC835775), CPI-455 (NSC825282), aza-TdCyd (NSC777586), decitabine (NSC127716), belinostat (NSC758774), entinostat (NSC756642), pevonedistat (NSC761192), tazemetostat (NSC777109), talazoparib (NSC765396), olaparib (NSC753686), selinexor (NSC780203), nedisertib (M3814, NSC802822), bortezomib (NSC756655), venetoclax (NSC766270), doxorubicin (NSC123127), elimusertib (BAY189344, NSC800525), ceralasertib (AZD6738, NSC777638), TAK-243 (NSC785004), alisertib (NSC759677), etoposide (NSC141540), topotecan (NSC609699), eribulin (NSC707389), gemcitabine (NSC613327), carboplatin (NSC241240), cisplatin (NSC119875), and SN-38 (NSC673596) were obtained from the National Cancer Institute (NCI) Developmental Therapeutics Program Chemical Repository (32). The FDA-approved anticancer drug set is available from the Developmental Therapeutics Program at https://dtp.cancer.gov/organization/dscb/obtaining/available plates.htm. […] The stock solutions were prepared in dimethyl sulfoxide (DMSO, Sigma-Aldrich, St. Louis, MO, cat. D2650), except for the platinum compounds which were prepared in saline (Quality Biological, Gaithersburg, MD, cat. 114-055-101), at 800-fold the tested concentration and stored at -70 degrees C prior to their use. All drugs and investigational agents were tested over a range starting from a high concentration at or near the clinical Cmax and decreasing in half-log increments. If the clinical Cmax for an agent had not been determined, the highest concentration tested was 10 microM (Table 1).
Cell Culture. All cells were maintained in an incubator at 37 degrees C and 5% CO2 with 95% humidity. The PDC lines were cultured according to standard operating procedures established by the NCI PDMR (https://pdmr.cancer.gov). Briefly, all PDCs were thawed and cultured in Matrigel-coated flasks prepared with a working solution of 1X Ham's F-12 nutrient mix, without supplementation (Invitrogen, Waltham, MA, cat. 11765054), 100 U/mL penicillin-streptomycin (Invitrogen, cat. 15140122), and 2.5% Matrigel (Corning Inc., Corning, NY, cat. 354248) for the first three passages. All PDCs were cultured in complete DMEM/F-12 media containing advanced DMEM/F-12 (Invitrogen, cat. 12634028), 4.9% defined fetal bovine serum, heat inactivated (HyClone Laboratories Inc., Logan, UT, cat. SH30070.03HI), 389 ng/mL hydrocortisone (Sigma-Aldrich, cat. H4001), 9.7 ng/mL human EGF recombinant protein (Invitrogen, cat. PHG0313), 23.4 microg/mL adenine (Sigma-Aldrich, cat. A2786), 97.3 U/mL penicillin-streptomycin (Invitrogen, cat. 15140122), 1.9 mM L-glutamine (Invitrogen, cat. 25030081), and 9.7 microM Y-27632 dihydrochloride (Tocris Bioscience, Bristol, United Kingdom, cat. 1254). The PDCs were cultured in complete DMEM/F12 media without 10 microM Y-27632 dihydrochloride for at least two passages prior to the screen. The established cell lines NCI-H1341 and […] were cultured in DMEM/F-12, HEPES (Invitrogen, cat. 11330032), 5% defined fetal bovine serum (HyClone Laboratories Inc., cat. SH30070.03), ITS premix universal culture supplement [insulin (5 microg/mL), transferrin (5 microg/mL), and selenious acid (5 ng/mL)] […]
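Note: spheroids exposed to agents for seven days before reading.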

`CC1(C)CCC(CN2CCN(c3ccc(C(=O)NS(=O)(=O)c4ccc(NCC5CCOCC5)c([N+](=O)[O-])c4)c(Oc4cnc5[nH]ccc5c4)c3)CC2)=C(c2ccc(Cl)cc2)C1` + Cc1ccccc1N=Nc1ccc(NC(=O)c2ccnn2C)c(C)c1 showed an IC50 (second compound 0.1 µM) greater than 10 µM, an IC50 (second compound 0.316 µM) of 8.7 µM and an IC50 (second compound 1 µM) of 9.24 µM. It also gave an IC50 (second compound 3.16 µM) of 7.49 µM, an IC50 (second compound 10 µM) of 7.21 µM and a viability, T/C (second compound 0.1 µM, first compound 0.0316 µM) of 94.8%. For the same compound, the viability, T/C (second compound 0.1 µM, first compound 0.1 µM) was 116%, the viability, T/C (second compound 0.1 µM, first compound 0.316 µM) was 102% and the viability, T/C (second compound 0.1 µM, first compound 1 µM) was 108%. For the same compound, the viability, T/C (second compound 0.1 µM, first compound 3.16 µM) was 117%, the viability, T/C (second compound 0.1 µM, first compound 10 µM) was 51.5% and the viability, T/C (second compound 0.316 µM, first compound 0.0316 µM) was 111%. The viability, T/C (second compound 0.316 µM, first compound 0.1 µM) was 110%, the viability, T/C (second compound 0.316 µM, first compound 0.316 µM) was 97% and the viability, T/C (second compound 0.316 µM, first compound 1 µM) was 112%. The viability, T/C (second compound 0.316 µM, first compound 3.16 µM) was 118%, the viability, T/C (second compound 0.316 µM, first compound 10 µM) was 41.8% and the viability, T/C (second compound 1 µM, first compound 0.0316 µM) was 104%. The viability, T/C (second compound 1 µM, first compound 0.1 µM) was 106%, the viability, T/C (second compound 1 µM, first compound 0.316 µM) was 97.6% and the viability, T/C (second compound 1 µM, first compound 1 µM) was 122%. The viability, T/C (second compound 1 µM, first compound 3.16 µM) was 122%, the viability, T/C (second compound 1 µM, first compound 10 µM) was 45.5% and the viability, T/C (second compound 3.16 µM, first compound 0.0316 µM) was 102%. For the same compound, the viability, T/C (second compound 3.16 µM, first compound 0.1 µM) was 97.7%, the viability, T/C (second compound 3.16 µM, first compound 0.316 µM) was 104% and the viability, T/C (second compound 3.16 µM, first compound 1 µM) was 99.4%. It also gave a viability, T/C (second compound 3.16 µM, first compound 3.16 µM) of 113%, a viability, T/C (second compound 3.16 µM, first compound 10 µM) of 32.2% and a viability, T/C (second compound 10 µM, first compound 0.0316 µM) of 121%. It also gave a viability, T/C (second compound 10 µM, first compound 0.1 µM) of 99.3%, a viability, T/C (second compound 10 µM, first compound 0.316 µM) of 112% and a viability, T/C (second compound 10 µM, first compound 1 µM) of 107%. The viability, T/C (second compound 10 µM, first compound 3.16 µM) was 109% and the viability, T/C (second compound 10 µM, first compound 10 µM) was 26.6%.
